Results: patent US9433622B2, “Pyrimidine compounds useful in the treatment of diseases mediated by IKKE and/or TBK1 mechanisms” (DOMAINEX LIMITED, priority 2013, dated 2016)
pIC50: −log10 of the molar value.

Legend:
TBK1 = TBK1 (Homo sapiens (Human), UniProt Q9UHD2); assay: Lanthascreen TR-FRET kinase inhibition assay, TBK1; assay type: biochemical; settings: 20 μM ATP (apparent Km), 8 nM kinase, 2.5 h
Outline: (§1)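 TR-FRET: terbium phosphospecific antibody detects phosphorylation of 400 nM fluorescein-IkBα peptide, 20 μM ATP, 20 °C, HEPES pH 7.5 with 3% DMSO. IKKε at 2 nM, 1 h reaction; TBK1 at 8 nM, 2.5 h reaction; started by kinase addition.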

IKKε = IKKε (Homo sapiens (Human), UniProt Q14164); assay: Lanthascreen TR-FRET kinase inhibition assay, IKKε; assay type: biochemical; settings: 20 μM ATP (apparent Km), 2 nM kinase, 1 h
IKKε, sequence (Q14164 whole entry): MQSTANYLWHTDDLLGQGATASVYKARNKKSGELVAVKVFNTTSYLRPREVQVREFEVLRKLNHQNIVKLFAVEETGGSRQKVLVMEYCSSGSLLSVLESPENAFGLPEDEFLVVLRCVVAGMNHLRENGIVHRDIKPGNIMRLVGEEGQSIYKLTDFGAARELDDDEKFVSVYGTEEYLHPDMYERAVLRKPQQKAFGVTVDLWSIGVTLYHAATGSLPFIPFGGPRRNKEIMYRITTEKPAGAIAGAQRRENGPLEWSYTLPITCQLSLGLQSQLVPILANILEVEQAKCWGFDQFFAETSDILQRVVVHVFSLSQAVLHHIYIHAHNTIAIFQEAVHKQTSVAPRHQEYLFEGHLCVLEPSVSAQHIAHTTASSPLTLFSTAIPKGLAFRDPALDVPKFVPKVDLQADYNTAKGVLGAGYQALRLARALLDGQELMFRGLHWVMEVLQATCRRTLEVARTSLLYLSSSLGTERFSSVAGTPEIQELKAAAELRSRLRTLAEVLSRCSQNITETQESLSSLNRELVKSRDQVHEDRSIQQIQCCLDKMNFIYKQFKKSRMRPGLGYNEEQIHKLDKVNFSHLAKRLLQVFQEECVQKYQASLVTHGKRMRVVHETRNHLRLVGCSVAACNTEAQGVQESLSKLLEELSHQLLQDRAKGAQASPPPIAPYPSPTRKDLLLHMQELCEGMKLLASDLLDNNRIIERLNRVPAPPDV
Outline: as §1

TBK1, sequence (Q9UHD2 whole entry): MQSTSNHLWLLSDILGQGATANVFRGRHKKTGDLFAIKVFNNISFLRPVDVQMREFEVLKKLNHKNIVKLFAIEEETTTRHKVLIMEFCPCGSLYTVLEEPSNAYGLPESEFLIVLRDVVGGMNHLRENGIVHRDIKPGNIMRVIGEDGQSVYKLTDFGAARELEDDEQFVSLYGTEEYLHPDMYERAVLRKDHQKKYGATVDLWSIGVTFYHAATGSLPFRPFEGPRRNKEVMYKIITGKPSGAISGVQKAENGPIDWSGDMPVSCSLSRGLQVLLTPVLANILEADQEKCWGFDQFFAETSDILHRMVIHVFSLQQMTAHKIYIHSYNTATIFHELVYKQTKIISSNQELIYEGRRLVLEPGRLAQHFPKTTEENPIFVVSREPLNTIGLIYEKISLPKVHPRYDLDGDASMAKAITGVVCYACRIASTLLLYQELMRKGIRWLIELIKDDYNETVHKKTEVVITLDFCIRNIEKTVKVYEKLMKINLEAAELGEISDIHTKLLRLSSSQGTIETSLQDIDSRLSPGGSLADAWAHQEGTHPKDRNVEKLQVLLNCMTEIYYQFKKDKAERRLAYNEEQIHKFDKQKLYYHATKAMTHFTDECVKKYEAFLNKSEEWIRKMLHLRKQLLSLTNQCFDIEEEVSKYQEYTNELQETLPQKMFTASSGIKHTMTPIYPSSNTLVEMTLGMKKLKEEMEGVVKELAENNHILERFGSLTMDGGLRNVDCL

Row | Compound | pIC50 (TBK1) | pIC50 (IKKε)
1 | N#Cc1cc(-c2nc(Nc3ccc(NC(=O)CN4CCOCC4)nc3)ncc2F)cnc1N1CC[C@H](F)C1 [DMX-88, N-(5-{4-[5-Cyano-6-((S)-3-fluoro-pyrrolidin-1-yl)-pyridin-3-yl]-5-fluoro-pyrimidin-2-ylamino}-pyridin-2-yl)-2-morpholin-4-yl-acetamide] | > 7.00 | > 7.00
2 | N#Cc1cc(-c2nc(Nc3ccc(CN4CCOCC4)nc3)ncc2F)cnc1N1CC[C@H](F)C1 [DMX-89, 5-[5-Fluoro-2-(6-morpholin-4-ylmethyl-pyridin-3-ylamino)-pyrimidin-4-yl]-2-((S)-3-fluoro-pyrrolidin-1-yl)-nicotinonitrile] | > 7.82 | > 7.52
3 | N#Cc1cc(-c2ccnc(Nc3ccc(CN4CCOCC4)nc3)n2)cnc1N1CCC2(COC2)C1 [DMX-92, 5-[2-(6-Morpholin-4-ylmethyl-pyridin-3-ylamino)-pyrimidin-4-yl]-2-(2-oxa-6-aza-spiro[3.4]oct-6-yl)-nicotinonitrile] | > 7.00 | > 7.52
4 | N#Cc1cc(-c2ccnc(Nc3ccnc(NC(=O)CN4CCOCC4)c3)n2)cnc1N1CCC2(COC2)C1 [DMX-93, N-(4-{4-[5-Cyano-6-(2-oxa-6-aza-spiro[3.4]oct-6-yl)-pyridin-3-yl]-pyrimidin-2-ylamino}-pyridin-2-yl)-2-morpholin-4-yl-acetamide] | > 7.00 | > 7.00
5 | N#Cc1cc(-c2nc(Nc3ccnc(NC(=O)CN4CCOCC4)c3)ncc2F)cnc1N1CCCOCC1 [DMX-94, N-{4-[4-(5-Cyano-6-[1,4]oxazepan-4-yl-pyridin-3-yl)-5-fluoro-pyrimidin-2-ylamino]-pyridin-2-yl}-2-morpholin-4-yl-acetamide] | > 7.00 | > 6.00
6 | CC(c1ccc(Nc2nccc(-c3cnc(N4CC[C@H](F)C4)c(C#N)c3)n2)cn1)N1CCOCC1 (stereo partly drawn) [DMX-96, 2-((S)-3-Fluoro-pyrrolidin-1-yl)-5-{2-[6-(1-morpholin-4-yl-ethyl)-pyridin-3-ylamino]-pyrimidin-4-yl}-nicotinonitrile] | > 7.82 | > 7.52
7 | CO[C@H]1CCN(Cc2ccc(Nc3nccc(-c4cnc(N5CC[C@H](F)C5)c(C#N)c4)n3)cn2)C1 [DMX-97, 2-((S)-3-Fluoro-pyrrolidin-1-yl)-5-{2-[6-((S)-3-methoxy-pyrrolidin-1-ylmethyl)-pyridin-3-ylamino]-pyrimidin-4-yl}-nicotinonitrile] | > 7.52 | > 7.00
8 | CS(=O)(=O)CCNCc1ccc(Nc2nccc(-c3cnc(N4CC[C@H](F)C4)c(C#N)c3)n2)cn1 [DMX-98, 2-((S)-3-Fluoro-pyrrolidin-1-yl)-5-(2-{6-[(2-methanesulfonyl-ethylamino)-methyl]-pyridin-3-ylamino}-pyrimidin-4-yl)-nicotinonitrile] | > 7.52 | > 7.52
9 | N#Cc1cc(-c2ccnc(Nc3ccnc(CN4CCOCC4)c3)n2)cnc1N1CC[C@H](F)C1 [DMX-99, 2-((S)-3-Fluoro-pyrrolidin-1-yl)-5-[2-(2-morpholin-4-ylmethyl-pyridin-4-ylamino)-pyrimidin-4-yl]-nicotinonitrile] | > 7.82 | > 7.52
10 | N#Cc1cc(-c2ccnc(Nc3cncc(CN4CCOCC4)c3)n2)cnc1N1CC[C@H](F)C1 [DMX-100, 2-((S)-3-Fluoro-pyrrolidin-1-yl)-5-[2-(5-morpholin-4-ylmethyl-pyridin-3-ylamino)-pyrimidin-4-yl]-nicotinonitrile] | > 7.52 | > 7.52
11 | CN(CCO)c1cc(Nc2nccc(-c3cnc(N4CC[C@H](F)C4)c(C#N)c3)n2)ccn1 [DMX-101, 2-((S)-3-Fluoro-pyrrolidin-1-yl)-5-(2-{2-[(2-hydroxy-ethyl)-methyl-amino]-pyridin-4-ylamino}-pyrimidin-4-yl)-nicotinonitrile] | > 7.52 | > 7.52
12 | N#Cc1cc(-c2ccnc(Nc3ccc(CN4CCCOCC4)nc3)n2)cnc1N1CC[C@H](F)C1 [DMX-103, 2-((S)-3-Fluoro-pyrrolidin-1-yl)-5-[2-(6-[1,4]oxazepan-4-ylmethyl-pyridin-3-ylamino)-pyrimidin-4-yl]-nicotinonitrile] | > 7.00 | > 7.00
13 | N#Cc1cc(-c2ccnc(Nc3cncc(NC(=O)CN4CCOCC4)c3)n2)cnc1N1CC[C@H](F)C1 [DMX-108, N-(5-{4-[5-Cyano-6-((S)-3-fluoro-pyrrolidin-1-yl)-pyridin-3-yl]-pyrimidin-2-ylamino}-pyridin-3-yl)-2-morpholin-4-yl-acetamide] | > 7.52 | > 7.00
14 | CC1(O)CN(Cc2ccc(Nc3nccc(-c4cnc(N5CC[C@H](F)C5)c(C#N)c4)n3)cn2)C1 [DMX-110, 2-((S)-3-Fluoro-pyrrolidin-1-yl)-5-{2-[6-(3-hydroxy-3-methyl-azetidin-1-ylmethyl)-pyridin-3-ylamino]-pyrimidin-4-yl}-nicotinonitrile] | > 7.00 | > 7.52
15 | N#Cc1cc(-c2ccnc(Nc3ccc(NC(=O)CN4CCOCC4)nc3)n2)cnc1N1CC[C@@H](F)C1 [DMX-112, N-(5-{4-[5-Cyano-6-((R)-3-fluoro-pyrrolidin-1-yl)-pyridin-3-yl]-pyrimidin-2-ylamino}-pyridin-2-yl)-2-morpholin-4-yl-acetamide] | > 7.52 | > 7.82
16 | CC(=O)Nc1ccc(Nc2nccc(-c3cnc(N[C@@H]4CCOC4)c(C#N)c3)n2)cn1 [DMX-113, N-[5-(4-{5-Cyano-6-[(R)-(tetrahydro-furan-3-yl)amino]-pyridin-3-yl}-pyrimidin-2-ylamino)-pyridin-2-yl]-acetamide] | > 6.00 | > 6.00
17 | CN1CCC(Nc2ccc(Nc3nccc(-c4cnc(N[C@@H]5CCOC5)c(C#N)c4)n3)cn2)CC1 [DMX-114, 5-{2-[6-(1-Methyl-piperidin-4-ylamino)-pyridin-3-ylamino]-pyrimidin-4-yl}-2-[(R)-(tetrahydro-furan-3-yl)amino]-nicotinonitrile] | > 7.00 | > 7.00
18 | Cn1cc(Nc2nccc(-c3cnc(N[C@@H]4CCOC4)c(C#N)c3)n2)cn1 [DMX-116, 5-[2-(1-Methyl-1H-pyrazol-4-ylamino)-pyrimidin-4-yl]-2-[(R)-(tetrahydro-furan-3-yl)amino]-nicotinonitrile] | > 6.00 | > 6.00
19 | N#Cc1cc(-c2ccnc(Nc3cccc(C(=O)NC4CCNCC4)c3)n2)cnc1N[C@@H]1CCOC1 [DMX-117, 3-(4-{5-Cyano-6-[(R)-(tetrahydro-furan-3-yl)amino]-pyridin-3-yl}-pyrimidin-2-ylamino)-N-piperidin-4-yl-benzamide] | > 6.00 | > 6.00
20 | COCCNc1ncc(-c2ccnc(Nc3ccc(NC4CCN(C)CC4)nc3)n2)cc1C#N [DMX-118, 2-(2-Methoxy-ethylamino)-5-{2-[6-(1-methyl-piperidin-4-ylamino)-pyridin-3-ylamino]-pyrimidin-4-yl}-nicotinonitrile] | > 6.00 | > 6.00

Next, values leading:

Row | pIC50 (TBK1) | pIC50 (IKKε) | Compound
21 | > 7.00 | > 7.00 | N#Cc1cc(-c2nc(Nc3ccc(CN4CCOCC4)nc3)ncc2F)cnc1N1CCCOCC1 [DMX-87, 5-[5-Fluoro-2-(6-morpholin-4-ylmethyl-pyridin-3-ylamino)-pyrimidin-4-yl]-2-[1,4]oxazepan-4-yl-nicotinonitrile]
22 | > 7.00 | > 6.00 | COCCNc1cc(Nc2ncc(F)c(-c3cnc(N4CCCOCC4)c(C#N)c3)n2)ccn1 [DMX-95, 5-{5-Fluoro-2-[2-(2-methoxy-ethylamino)-pyridin-4-ylamino]-pyrimidin-4-yl}-2-[1,4]oxazepan-4-yl-nicotinonitrile]
23 | > 7.82 | > 7.82 | N#Cc1cc(-c2ccnc(Nc3ccc(CN4CCNC(=O)C4)nc3)n2)cnc1N1CC[C@H](F)C1 [DMX-102, 2-((S)-3-Fluoro-pyrrolidin-1-yl)-5-{2-[6-(3-oxo-piperazin-1-ylmethyl)-pyridin-3-ylamino]-pyrimidin-4-yl}-nicotinonitrile]
24 | > 7.00 | > 7.00 | CN(CCO)Cc1ccc(Nc2nccc(-c3cnc(N4CC[C@H](F)C4)c(C#N)c3)n2)cn1 [DMX-104, 2-((S)-3-Fluoro-pyrrolidin-1-yl)-5-[2-(6-{[(2-hydroxy-ethyl)-methyl-amino]-methyl}-pyridin-3-ylamino)-pyrimidin-4-yl]-nicotinonitrile]
25 | > 7.00 | > 7.00 | COCCNCc1cncc(Nc2nccc(-c3cnc(N4CC[C@H](F)C4)c(C#N)c3)n2)c1 [DMX-106, 2-((S)-3-Fluoro-pyrrolidin-1-yl)-5-(2-{5-[(2-methoxy-ethylamino)-methyl]-pyridin-3-ylamino}-pyrimidin-4-yl)-nicotinonitrile]
26 | > 7.00 | > 7.52 | N#Cc1cc(-c2ccnc(Nc3cnc4c(c3)CNC4)n2)cnc1N1CC[C@H](F)C1 [DMX-109, 5-[2-(6,7-Dihydro-5H-pyrrolo[3,4-b]pyridin-3-ylamino)-pyrimidin-4-yl]-2-((S)-3-fluoro-pyrrolidin-1-yl)-nicotinonitrile]
27 | > 7.82 | > 7.52 | N#Cc1cc(-c2ccnc(Nc3ccnc(NC(=O)CN4CCOCC4)c3)n2)cnc1N1CC[C@@H](F)C1 [DMX-111, N-(4-{4-[5-Cyano-6-((R)-3-fluoro-pyrrolidin-1-yl)-pyridin-3-yl]-pyrimidin-2-ylamino}-pyridin-2-yl)-2-morpholin-4-yl-acetamide]
28 | > 6.00 | > 6.00 | CN1CCC(NC(=O)c2cccc(Nc3nccc(-c4cnc(N[C@@H]5CCOC5)c(C#N)c4)n3)c2)CC1 [DMX-115, 3-(4-{5-Cyano-6-[(R)-(tetrahydro-furan-3-yl)amino]-pyridin-3-yl}-pyrimidin-2-ylamino)-N-(1-methyl-piperidin-4-yl)-benzamide]
29 | > 7.00 | > 6.00 | CNc1ncc(-c2ccnc(Nc3ccc(NC4CCN(C)CC4)nc3)n2)cc1C#N [DMX-119, 2-Methylamino-5-{2-[6-(1-methyl-piperidin-4-ylamino)-pyridin-3-ylamino]-pyrimidin-4-yl}-nicotinonitrile]
